Experimental data from patent US4495195A, “Xanthine oxidase inhibiting 3(5)-phenyl-substituted-5(3)-pyrazole-carboxylic acid derivatives, compositions, and methods of use” (Eli Lilly and Company, priority 1982, dated 1985).
Where two headings read alike, the source gives them in different places.

Experiments:
[1] = system: xanthine oxidase; test: oral administration in rats, in vivo inhibition of xanthine oxidase (Table V); set-up: species or system rat
Description: Compounds corresponding to formulas Ia, Ib and Ic above are active in vivo in lowering plasma uric acid levels. […] The first method, the spectrofluorometric method, was modified from the precedure of Sumi et al., Clinica. Chimica. Acta., 73, 233 (1976). Rats were sacrificed by decapitation and their blood collected into vacutainer tubes containing heparin via heparinized glass funnels. The blood was centrifuged for 8 minutes at 4000 rpm after which time the plasma was separated and diluted 1:1 with water. Plasma protein was precipitated by addition of acetic acid to a final concentration of 0.007 molar and boiling the resulting mixture for 5 minutes in Sorval tubes. Clear deprotein plasma was obtained after centrifugation of the resulting plasma for 30 minutes at 25,000 rpm. Uric acid was assayed as follows: 0.2 ml. aliquots of the clear deproteinized plasma were mixed with 120 λ of uricase (0.045 mu/ml.) and incubated for 30 minutes at 27° C. 1.0 ml. of a p-hydroxyphenylacetic acid buffer was added. […] Fluoroescence of the solution was measured in quartz tubes using an Aminco Bowman-Spectrofluorimeter having excitation of 321 nm and emission at 412 nm. […]
The second method is called the HPLC-EC Detection method. […] Uric acid levels were then calculated from peak areas by computer analysis. […]

[2] = target: T1, xanthine oxidase (Bos taurus, UniProt P80457); test: in vitro xanthine oxidase assay (rate of uric acid formation from xanthine); assay type: biochemical
T1 construct: purchased Sigma Chemical Company, St. Louis, Missouri
T1 sequence (P80457 whole entry): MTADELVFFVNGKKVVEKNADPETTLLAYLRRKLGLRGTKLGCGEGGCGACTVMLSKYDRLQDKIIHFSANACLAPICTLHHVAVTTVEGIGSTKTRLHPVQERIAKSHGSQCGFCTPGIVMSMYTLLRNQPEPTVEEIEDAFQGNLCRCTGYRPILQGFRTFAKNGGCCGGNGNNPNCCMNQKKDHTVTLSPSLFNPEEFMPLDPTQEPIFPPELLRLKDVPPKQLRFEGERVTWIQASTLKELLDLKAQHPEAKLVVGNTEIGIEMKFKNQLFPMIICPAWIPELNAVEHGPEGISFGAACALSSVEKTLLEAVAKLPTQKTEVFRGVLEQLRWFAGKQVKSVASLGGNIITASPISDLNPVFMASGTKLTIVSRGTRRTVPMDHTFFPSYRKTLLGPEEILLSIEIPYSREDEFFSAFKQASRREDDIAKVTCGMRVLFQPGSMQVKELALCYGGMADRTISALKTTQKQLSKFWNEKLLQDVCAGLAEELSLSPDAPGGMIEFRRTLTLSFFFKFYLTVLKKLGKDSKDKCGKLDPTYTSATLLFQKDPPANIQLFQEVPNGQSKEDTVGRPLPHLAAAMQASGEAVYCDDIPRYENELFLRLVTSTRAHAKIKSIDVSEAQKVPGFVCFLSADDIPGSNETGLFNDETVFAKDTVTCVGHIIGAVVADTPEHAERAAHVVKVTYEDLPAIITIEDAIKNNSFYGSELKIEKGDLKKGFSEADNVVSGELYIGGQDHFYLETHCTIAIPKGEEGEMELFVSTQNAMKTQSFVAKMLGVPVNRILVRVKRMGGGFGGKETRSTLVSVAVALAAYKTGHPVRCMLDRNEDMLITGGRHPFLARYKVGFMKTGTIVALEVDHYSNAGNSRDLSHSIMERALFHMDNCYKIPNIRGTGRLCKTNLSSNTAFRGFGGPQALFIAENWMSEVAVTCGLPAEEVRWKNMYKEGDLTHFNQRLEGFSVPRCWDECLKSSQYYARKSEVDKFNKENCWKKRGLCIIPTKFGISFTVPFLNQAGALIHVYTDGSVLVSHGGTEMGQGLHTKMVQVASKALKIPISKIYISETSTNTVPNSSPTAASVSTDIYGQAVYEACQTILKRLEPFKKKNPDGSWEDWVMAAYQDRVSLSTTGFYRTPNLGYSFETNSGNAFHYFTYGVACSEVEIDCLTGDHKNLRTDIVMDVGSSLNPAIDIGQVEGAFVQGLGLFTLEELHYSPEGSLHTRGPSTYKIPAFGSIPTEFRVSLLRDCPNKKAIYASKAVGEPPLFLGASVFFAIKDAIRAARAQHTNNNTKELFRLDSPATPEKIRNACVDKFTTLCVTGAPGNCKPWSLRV
Description: Xanthine oxidase activity was measured at room temperature by the rate of uric acid formation from xanthine substrate. In a total volume of 1 ml., the incubation mixture contained 50 micromoles of potassium phosphate buffer at pH 7.4, 0.05 micromoles of xanthine and 0.01 units of enzyme preparation (chromatographically purified milk xanthine oxidase, grade III, obtained from Sigma Chemical Company, St. Louis, Missouri). The absorbence change at 292 nm was recored by a Gilford recording spectrophotometer and the uric acid formed was calculated using an extinction coefficient of 12 mM^-1 cm^-1 at 292 nm.

[3] = system: plasma level of uric acid; test: in vivo lowering of plasma uric acid, oral, rats; conditions: Rattus norvegicus, read-out: ED50 (dose which reduces plasma level of uric acid by one-half)
Description: Compounds corresponding to formulas Ia, Ib and Ic above are active in vivo in lowering plasma uric acid levels. […] The first method, the spectrofluorometric method, was modified from the precedure of Sumi et al., Clinica. Chimica. Acta., 73, 233 (1976). Rats were sacrificed by decapitation and their blood collected into vacutainer tubes containing heparin via heparinized glass funnels. The blood was centrifuged for 8 minutes at 4000 rpm after which time the plasma was separated and diluted 1:1 with water. Plasma protein was precipitated by addition of acetic acid to a final concentration of 0.007 molar and boiling the resulting mixture for 5 minutes in Sorval tubes. Clear deprotein plasma was obtained after centrifugation of the resulting plasma for 30 minutes at 25,000 rpm. Uric acid was assayed as follows: 0.2 ml. aliquots of the clear deproteinized plasma were mixed with 120 λ of uricase (0.045 mu/ml.) and incubated for 30 minutes at 27° C. 1.0 ml. of a p-hydroxyphenylacetic acid buffer was added. Samples obtained from feeding rats or dogs serial doses of the compound under test were incubated with the above buffer solution for 30 minutes at 27° C. Fluoroescence of the solution was measured in quartz tubes using an Aminco Bowman-Spectrofluorimeter having excitation of 321 nm and emission at 412 nm. Five uric acid standards from 6-30 micromolar were assayed for each test and each standard yielded a linear curve.
The second method is called the HPLC-EC Detection method. In this procedure, blood plasma was collected from rats as described above and from dogs in heparinized syringes from the cefalic vein in the forearm. The blood plasma was centrifuged with Sure-Sep to separate plasma. Deproteinized plasma was prepared in each instance by first diluting one volume of plasma with one volume of an internal standard solution, 4 mcg./ml., and then addition of two volumes of 5% trichloroacetic acid. Standards were added to control plasma in the range of 0-8 mcg./ml. of uric acid. Samples obtained by feeding graded doses of the drug under test to dogs or rats were mixed for 30 seconds and then centrifuged in an Eppendorf microcentrifuge. Supernates were diluted 1:10 in column buffer and assayed for uric acid. Internal standards used were 3-methyluric acid for the rat samples and 3,9-dimethyluric acid for dog samples. Assays were performed as follows using a Bioanlaytic Systems Inc. LC-44 analyser and an electrochemical detector system based on an Altex model 110 pump coupled with a CP-O carbon paste electrodetector. […] Uric acid levels were then calculated from peak areas by computer analysis. […]

[4] = oral LD50 in mice; conditions: mouse, in vivo; for selectivity ratio: LD50 oral mice / ED50 oral rats; for LD50: oral, mice, with standard error, read-out: LD50 (dose which kills one-half of the animals)
Description: The compounds represented by the above formula are also relatively non-toxic. In column 3 of Table IV are listed the oral LD50 for mice in mg. per kg. (with standard error) for each of the compounds of column 1 (dose which kills one-half of the animals). Finally, column 4 in Table IV gives the ratio of LD50 to ED50. It will be seen that the ratio of the LD50 to the ED50 is quite high, giving a substantial margin of safety for using the compounds of formulas Ia, Ib, and Ic in treating gout in mammals, particularly humans.

[5] = milk xanthine oxidase, 0.05 micromoles xanthine in 1 ml, pH 7.4, room temperature, read-out: I50 (concentration of drug which inhibits 50% of the oxidation of xanthine to uric acid) (converted)

SMILES | IC50 [2, 5] [nM] | also measured
COC(=O)c1cc(-c2cccc(C(F)(F)F)c2)nn1C [R=OCH3, methyl 1-methyl-3-(3-trifluoromethylphenyl)pyrazole-5-carboxylate] | – | Oral Percent Inhibition ([1]; dosage 24 mg·kg): 50%
Cn1nc(-c2cccc(C(F)(F)F)c2)c(Br)c1C(=O)O [R=CF3, X=Br, 1-methyl-3-(3-trifluoromethylphenyl)-4-bromopyrazole-5-carboxylic acid] | 57.3 | ED50 [3]: 11 mg/kg; selectivity ratio [4]: 27 to 45; LD50 [4]: 300 to 500 mg/kg
Cc1cccc(-c2cc(C(=O)O)n(C)n2)c1 [R=3-CH3, R^1=H, 1-Methyl-3-(m-tolyl)pyrazole-5-carboxylic acid] | 1390 | –
Cn1nc(-c2ccc(Br)cc2)cc1C(=O)O [R=4-Br, R^1=H, 1-methyl-3-(4-bromophenyl)pyrazole-5-carboxylic acid] | 416 | –
Cn1nc(-c2cccc(C(F)(F)F)c2)c(O)c1C(=O)O [R=CF3, X=OH, 1-methyl-3-(3-trifluoromethylphenyl)-4-hydroxypyrazole-5-carboxylic acid] | 28 | –
COc1ccc(-c2cc(C(=O)O)n(C)n2)cc1 [R=4-OCH3, R^1=H, 1-Methyl-3-(4-methoxyphenyl)pyrazole-5-carboxylic acid] | 310 | –
Cn1nc(-c2ccc(C(F)(F)F)cc2)cc1C(=O)O [R=4-CF3, R^1=H, 1-methyl-3-(4-trifluoromethylphenyl)pyrazole-5-carboxylic acid] | 426 | –
O=C(O)c1cc(-c2cccc(C(F)(F)F)c2)n[nH]1 [R=3-CF3, X=H, 3(5)-(3-trifluoromethylphenyl)pyrazole-5(3)-carboxylic acid] | 390 | –
Cn1nc(-c2cccc(C(F)(F)F)c2)cc1C(N)=O [R=NH2] | – | Oral Percent Inhibition ([1]; dosage 90 mg·kg): 23.5%
Cn1nc(-c2ccc(Cl)c(Cl)c2)cc1C(=O)O [R=3-Cl, R^1=4-Cl, 1-Methyl-3-(3,4-dichlorophenyl)pyrazole-5-carboxylic acid] | 177 | –
O=C(O)c1[nH]nc(-c2cccc(C(F)(F)F)c2)c1O [R=3-CF3, X=OH, 3(5)-(3-Trifluoromethylphenyl)-4-hydroxypyrazole-5(3)-carboxylic acid] | 44.8 | –
Cn1nc(-c2cccc(C(F)(F)F)c2)cc1C(=O)O [R=3-CF3, R^1=H, 1-methyl-3-(3-trifluoromethylphenyl)pyrazole-5-carboxylic acid] | 25.9 | ED50 [3]: 30 mg/kg; selectivity ratio [4]: 19.5; LD50 [4]: 585 ± 45 mg/kg
Cn1nc(-c2cccc(Cl)c2)cc1C(=O)O [R=3-Cl, R^1=H, 1-Methyl-3-(3-chlorophenyl)pyrazole-5-carboxylic acid] | 304 | –
O=C(O)c1[nH]nc(-c2ccc(F)cc2)c1O [R=4-F, X=OH] | 1580 | –
Cn1nc(-c2cccc(Br)c2)c(Cl)c1C(=O)O [R=Br, X=Cl, 1-Methyl-3-(3-bromophenyl)-4-chloropyrazole-5-carboxylic acid] | 66.5 | –
Cn1nc(-c2ccc(Cl)cc2)cc1C(=O)O [R=4-Cl, R^1=H, 1-Methyl-3-(4-chlorophenyl)pyrazole-5-carboxylic acid] | 1690 | –
Cn1nc(-c2cccc(C(F)(F)F)c2)c(N)c1C(=O)O [R=CF3, X=NH2, 1-Methyl-3-(3-trifluoromethylphenyl)-4-aminopyrazole-5-carboxylic acid] | 30.2 | ED50 [3]: 23 mg/kg
Cn1nc(-c2cccc(C(F)(F)F)c2)c(Cl)c1C(=O)O [R=CF3, X=Cl, 1-Methyl-3-(3-trifluoromethylphenyl)-4-chloropyrazole-5-carboxylic acid] | – | IC50 [2]: 46 nM; ED50 [3]: 8.5 mg/kg; selectivity ratio [4]: 38; LD50 [4]: 322 ± 38 mg/kg
Cn1nc(-c2cccc(Br)c2)cc1C(=O)O [R=3-Br, R^1=H, 1-Methyl-3-(3-bromophenyl)pyrazole-5-carboxylic acid] | 71.1 | –
COc1ccc(-c2cc(C(=O)O)n(C)n2)cc1OC [R=3-OCH3, R^1=4-OCH3, 1-Methyl-3-(3,4-dimethyoxyphenyl)pyrazole-5-carboxylic acid] | 244 | –
COc1ccc(-c2n[nH]c(C(=O)O)c2O)cc1 [R=4-OMe, X=OH] | 726 | –
